{
  "source": "patent US20220370636A1",
  "about": "“NICOTINAMIDE ADENINE DINUCLEOTIDE ACTIVATOR AND USE THEREOF” (University of South Florida, priority 2021, published 2022)",
  "key": {"db/db mice [1]": {"test_system": "db/db mice", "experiment": "qPCR gene expression of gastrocnemius muscle and MyHC1 myofibre staining in db/db mice", "type": "in vivo", "experimental": "Quantitative real-time PCR. Total RNA was isolated from GAS muscle using the Exiqon miRCURY RNA Isolation kit (Exiqon, Mass., USA) according to the manufacturer's protocol. Complimentary DNA from total RNA was synthesized with iScript cDNA synthesis kit (Bio-Rad Laboratories, CA, USA) and quantitative real-time PCR (qPCR) analysis was performed on key transcriptome targets using iTaq Universal SYBR Green Supermix (Bio-Rad Laboratories, CA, USA). The cDNA synthesis and qPCR procedures were performed as described previously. The mouse HPRT gene was used as an internal control.\nMyofibre staining. The 10 μm thick transverse serial cryosections of TA muscles were cut at the mid-belly region using Microm cryostat ma-chine. Briefly, the tissue sections were blocked with 0.2% bovine serum albumin (BSA) and 10% normal sheep serum (NSS) in PBS-Triton X100 (PBST) for 1 h at RT. All washes were carried out with PBS. Following washing, the sections were incubated in 5 μg/mL of mouse monoclonal primary antibody against myosin heavy chain type-1 (A4.840s DSHB, IA, USA) in 0.2% BSA and 5% NSS antibody dilution buffer in PBST overnight at 4° C. After washing, the sections were then fixed with 10% neutral buffered formalin for 5 min at RT, washed and incubated in 1:300 dilution of biotinylated sheep anti-mouse IgG (ab6807, Abcam, Mass., USA) and 1:1000 dilution of rabbit anti-laminin (L9393, Sigma-Aldrich, MO, USA) in the antibody dilution buffer for 1 h at RT. Following washes, the tissue sections were then incubated in 1:400 dilution of streptavidin AF488 conjugate and goat anti-rabbit AF594 (Invitrogen, CA, USA) and then washed and mounted with Prolong gold anti-fade mounting medium with DAPI (Invitrogen, CA, USA). Images were obtained at ×10 and ×20 magnifications with the Olympus IX73 inverted microscope using CellSens Standard software (Olympus Soft Imaging Solution, USA) and the MyHC1 positive myofibres were quantified with ImageJ software."}, "db/db mice [2]": {"test_system": "db/db mice", "experiment": "LC-MS/MS lipidomics of gastrocnemius muscle in db/db mice", "type": "in vivo", "experimental": "Lipidomics. The lipidomic profiling of GAS muscle was performed using a liquid chromatography-tandem mass spectrometry (LC-MS/MS) method as described previously. Briefly, the GAS muscle samples were collected, and flash frozen in liquid nitrogen. Around 50-100 mg of the muscle tissue was homogenized using a bead-beating method, then the obtained supernatant was further cleaned and concentrated by solid phase extraction. The extracted LMs samples were dried under vacuum and stored at […] for future LC-MS/MS analysis. The dried extracts were reconstituted with 50 μL of methanol, and 10 μL was injected into LC-MS/MS to observe lipid profiles in GAS muscles. The LC-MS/MS system components were from Shimadzu Scientific Instruments Inc. (Columbia, Md., USA). All analyses and data processing were completed with the use of Shimadzu Lab Solutions V5.91 software (Shimadzu Scientific, Tokyo, Japan)."}, "C57Bl/6J wildtype hearts": {"test_system": "C57Bl/6J wildtype hearts", "experiment": "Ex vivo ischemia reperfusion (Langendorff) in wildtype hearts", "design": "species or system mice", "experimental": "Ex vivo ischemia reperfusion protocol. Mice were injected with heparin (360 USP units, Sigma-Aldrich, MO, USA) and euthanized with Somnasol™ (pentobarbital, 50 mg/kg i.p. body weight). Hearts were then excised and mounted on to the Langendorff apparatus immediately and perfused with Krebs-Hanseleit buffer containing (in mM): 119 NaCl, 25 NaHCO3, 4 KCl, 1 MgCl2, 1.8 CaCl2), 1 MgCl2, 10 glucose and 2 Sodium pyruvate, pH 7.4, that was constantly bubbled with carbogen gas and maintained at 37° C. as described previously. Perfusion was maintained at a constant flow of ˜2.2 ml/min. Hearts were stabilized for 30 min before proceeding to the ischemic phase. Hearts that underwent P7C3 (3 μM) treatment during the Langendorff procedure were allowed to stabilize for 10 mins then a 20 min perfusion with P7C3 (3 μM) (within Krebs-Hanseleit buffer) as pre-ischemic dosing. Cardiac ischemia was induced by the pause in Krebs-Hanseleit buffer perfusion for 45 min. Reperfusion was induced with the induction of Krebs-Hanseleit buffer at a constant flow of ˜2.2 ml/min for 2 hours. Hearts that underwent P7C3 (3 μM) treatment received 2-hour reperfusion with P7C3 within the Krebs-Hanseleit buffer. Hearts were then removed from the Langendorff apparatus and immediately placed in −20° C. freezer for 30 minutes. Hearts were then placed on a sectioning block and sliced into ([…]) slices. Heart sections were subjected to 2,3,5-Triphenyltetrazolium chloride (TTC) staining for 30 minutes. Hearts were then imaged and scanned for ischemic damage assessment. Image J software was utilized to quantify the ischemic areas for several sections per heart, which were then averaged and divided by the total area of the heart section and multiplied by a factor of ×100(%) to determine the overall damage percentage per heart.\nLactate Dehydrogenase activity. […]. The absorbance intensity was measured at 450 nm.\nTroponin I activity. […].\nWestern blotting. For studies aimed to assess the insulin stimulated AKT phosphorylation, following four-week P7C3 treatment, mice were injected with Novolin R human insulin (1 Unit/kg body weight, i.p.), and hearts were collected after 5 minutes for Western blot analysis. Protein lysates for Western blotting were prepared from mouse hearts as described previously. Equivalent amounts of protein were loaded and resolved using 12% precast polyacrylamide gels (BioRad, CA, USA). Successful transfer of proteins was detected using Ponceau S (Sigma-Aldrich, MO, USA), and blots were probed with mouse monoclonal primary antibody for phospho AKT^ser473 (p-AKT), total AKT (t-AKT), phospho eNOS^ser1177 (p-eNOS), total eNOS (t-eNOS), Beclin1, and GAPDH (Cell signaling, MA, USA). HRP conjugated Rabbit anti-mouse antibody (Millipore) was used as a secondary antibody. Target protein band densities were quantified using Image J software."}, "[3]": {"experiment": "In vitro drug release by membrane dialysis", "conditions": "PBS pH 7.4, 37° C.", "procedure": "In vitro Drug Release. Membrane dialysis method was used to investigate the drug release profile of P7C3 from the NPs. A 0.5 mL sample volume of aptamer conjugated, and non-conjugated P7C3 NPs was filled in dialysis cassettes (MWCO 14 KDa) and placed in 50 mL of PBS (pH 7.4) release medium with stirring at 100 rpm and temperature of 37° C. At predetermined time intervals, 1 mL sample volume of release media was removed, and the release study was continued for 7 days."}, "db/db mice [4]": {"test_system": "db/db mice", "experiment": "Fasting blood glucose, ITT, GTT and insulin in db/db mice", "procedure": "Mice were fasted 6 h, and tail vein blood was used for glucose measurement with ACCU-CHECK blood glucose meter (Roche Diagnostics, Mannheim, Germany) on a weekly basis for 4 weeks.\nInsulin tolerance test. […] After 4 weeks of treatment, both the db-Veh and db-P7C3 treated mice were fasted overnight for GTT assay. GTT was performed by a single dose of intraperitoneal injection of 2 g/kg body weight of D-(+)-glucose (Sigma-Aldrich, MO, USA). Blood samples were obtained by the retro orbital plexus technique. Serum glucose levels were determined prior to glucose administration (0 min) and after 30, 60, 90, and 120 min of glucose injection, using glucose oxidase peroxidase kit (Pointe Scientific Inc., MI. USA) and following manufacturer's instructions. […] The index of the total glucose shift was calculated as the area under the curve (AUC) using trapezium method."}, "[5]": {"conditions": "gastrocnemius muscle, vs db-Veh"}, "[6]": {"conditions": "gastrocnemius muscle, vs db-Veh and C57Bl/6J"}, "[7]": {"conditions": "gastrocnemius muscle, vs db-Veh and WT"}, "[8]": {"conditions": "WT hearts perfused with P7C3 3 μM"}, "[9]": {"conditions": "WT hearts, following I/R injury, vs control hearts"}},
  "data": [
    {"compound": "OC(CNc1ccccc1)Cn1c2ccc(Br)cc2c2cc(Br)ccc21", "note": "(stereo not shown) [P7C3, 3,6-Dibromo-a-[(phenylamino)methyl]-9H-carbazole-9-ethanol]", "values": [
      {"measurement": "TNFα expression in skeletal muscle", "setting": "db/db mice [1]; gastrocnemius muscle, db-Veh vs db-P7C3", "result": "high levels in db-Veh compared with db-P7C3"},
      {"measurement": "CD36 expression", "setting": "db/db mice [1]; [5]", "result": "significantly down-regulated"},
      {"measurement": "Fabp1 expression", "setting": "db/db mice [1]; [5]", "result": "significantly down-regulated"},
      {"measurement": "Fgf21 expression", "setting": "db/db mice [1]; [5]", "result": "significant reduction"},
      {"measurement": "MyHC type 1 (MyHC1) expression levels", "setting": "db/db mice [1]; [5]", "result": "significant de-crease"},
      {"measurement": "Cpt1 expression", "setting": "db/db mice [1]; [6]", "result": "significantly up-regulated"},
      {"measurement": "Pdk4 expression", "setting": "db/db mice [1]; [6]", "result": "significantly up-regulated"},
      {"measurement": "MyHC-2a expression levels", "setting": "db/db mice [1]; [7]", "result": "no significant change"},
      {"measurement": "MyHC-2b expression levels", "setting": "db/db mice [1]; [7]", "result": "no significant change"},
      {"measurement": "MyHC-2× expression levels", "setting": "db/db mice [1]; [7]", "result": "no significant change"},
      {"measurement": "number of MyHC1 positive myofibres", "setting": "db/db mice [1]; tibialis anterior immunostaining, vs db-Veh", "result": "significant decrease"},
      {"measurement": "anti-inflammatory LMs (DHA, HDoHE derivatives, EPA, 5-HEPE)", "setting": "db/db mice [2]", "result": "lowered"},
      {"measurement": "pro-inflammatory LMs (arachidonic acid, 11-HETE, 15-HETE)", "setting": "db/db mice [2]", "result": "significantly attenuated"},
      {"measurement": "2-arachidonoyl glycerol (2-AG) levels", "setting": "db/db mice [2]; vs db-Veh", "result": "significantly decreased"},
      {"measurement": "anandamide (AEA) levels", "setting": "db/db mice [2]; vs db-Veh and WT", "result": "significantly higher"},
      {"measurement": "increase in NAD+/NADH levels", "setting": "C57Bl/6J wildtype hearts; [8]", "result": 3, "unit": "fold"},
      {"measurement": "increase in cardiac Nampt activity", "setting": "C57Bl/6J wildtype hearts; [8]", "result": 1.7, "unit": "fold"},
      {"measurement": "ischemic injury (infarct)", "setting": "C57Bl/6J wildtype hearts; WT hearts, P7C3 3 μM pre- and post-exposure", "result": 8, "unit": "%"},
      {"measurement": "p-AKT/t-AKT levels post I/R injury", "setting": "C57Bl/6J wildtype hearts; WT hearts, P7C3 3 μM, vs vehicle control hearts", "result": "significant increase"},
      {"measurement": "coronary effluent LDH activity", "setting": "C57Bl/6J wildtype hearts; [9]", "result": "significantly reduced"},
      {"measurement": "coronary effluent Troponin I", "setting": "C57Bl/6J wildtype hearts; [9]", "result": "significantly reduced"},
      {"measurement": "cumulative drug release at day 1 (24 h)", "setting": "[3]", "result": 100, "unit": "%"},
      {"measurement": "fasting blood glucose levels", "setting": "db/db mice [4]; 10 mg/kg/day i.p., 4 weeks, 6 h fasting, vs vehicle", "result": "significant decrease"},
      {"measurement": "circulating blood glucose levels in response to the ITT", "setting": "db/db mice [4]; 10 mg/kg/day i.p., 4 weeks, vs db-Veh", "result": "significantly reduced"},
      {"measurement": "HOMA-IR", "setting": "db/db mice [4]; 4 weeks, vs db-Veh", "result": "decreased"},
      {"measurement": "circulating insulin levels", "setting": "db/db mice [4]; 4 weeks, vs db-Veh", "result": "increased"},
      {"measurement": "β cells function (HOMA-B)", "setting": "db/db mice [4]; 4 weeks, vs db-Veh", "result": "increased"},
      {"measurement": "GTT percent AUC", "setting": "db/db mice [4]; trapezium method, vs db-Veh", "result": "significant decrease"}
    ]}
  ]
}
